Experimental data taken from US20250027045A1, “ESTABLISHMENT OF ERYTHROID PRECURSOR CELL LINE CAPABLE OF CONDITIONAL MATURATION USING GENE OVEREXPRESSION” (IUCF-HYU (INDUSTRY-UNIVERSITY COOPERATION FOUNDATION …, priority 2021, published 2025).
Like-named read-outs stand apart in the source and are kept apart here.

How the values were obtained:
[1] = test system: Cord blood-derived CD34+ cells; assay: Proliferation of typical CD34+ cell culture with or without TGF-β inhibitor and PPAR-α agonist (cumulative cell number); assay type: cell-based, human
Experimental: HSCs were cultured for one to three days in a medium containing StemSpan SFEM (Stemcell Technologies) with 6 IU/ml EPO (Calbiochem, San Diego, CA), 100 ng/ml SCF (R&D Systems, Minneapolis, MN), and 10 ng/ml IL-3 (R&D Systems). Then, 5×10^4 cells were transduced with the virus concentrated in the above culture medium and polybrenc (8 μg/ml, Sigma). The multiplicity of infection (MOI) of the virus during transduction was calculated to be 15 to 30. 24 hours after the transduction, the medium was replaced with a fresh virus-free medium, and from day 5 of culture, the StemSpan SFEM medium was supplemented with 3 IU/ml EPO, 50 ng/ml SCF, 10^−6 M dexamethasone, and 250 nM TGF-β inhibitor (LY2157299, PeproTech, Rocky Hill, NJ), 10 μM PPAR-α agonist (GW7647, Sigma), and 1 μg/ml doxycycline (Takara Bio Inc.) to induce selective expression of HPV16 E6/E7 in the transduced cells. The efficiency of transduction was confirmed on day 7 of culture through GFP fluorescence expression of GFP-transduced cells, and the cells were maintained at a concentration of 2 to 3×10^5 cells/ml while replacing the medium with a fresh medium every two to three days. In addition, to obtain the cell proliferation and survival rate, the cells were stained with trypan blue (Gibco) and counted. […]

[2] = test system: Cord blood-derived CD34+ cells; assay: Flow cytometry of CD71 marker: proportion of immature erythroblasts; assay type: cell-based, human; conditions: day 17, flow cytometry
Experimental: The following antibodies were used: glycophorin A (GPA; CD235a)-FITC (Life Technologies Inc., Gaithersburg, MD); and CD71-PE (BioLegend Inc., San Diego, CA). The cells were washed with 0.1% BSA, then antibodies were added and stained for 15 minutes at 4° C., while blocking light. In addition, a fluorescence microscope (Nikon Eclipse Ti; Nikon Corporation) was used to confirm the GFP fluorescence expressed in the cells cultured in the plate.
There is an TGF-β inhibitor (LY2157299) which is known to be effective in the maintenance and proliferation of immature erythroblasts, and a PPAR-α agonist (GW7647) that may have a synergistic effect on the proliferation of immature erythroblasts with glucocorticoid was explored, and an experiment was performed on the effects of the two substances. First, the two substances were added to a typical CD34+ cell culture under different conditions and cultured. In terms of cell proliferation, the cells proliferated the most by 1,500-fold by day 15 of culture when the culture was performed by adding the two substances together, and the cells proliferated by 1,000-fold by day 13 of culture in the experimental group where only the TGF-β inhibitor was added. […]

Excerpt for E6/E7-transduced cells: Some of the cells in culture were spread on a slide using a cell centrifuge (Cellspin; Hanil Science Industrial Co. Ltd., Incheon, Korea) and stained with a Wright-Giemsa stain (Sigma), and the state, shape, and maturity of the cells were confirmed in a blind manner. Cell photos were taken using an optical microscope (Nikon Eclipse TE2000-U; Nikon Corporation).
In addition, the immature erythroblast marker CD71 was attached to the proliferating cells, and the proportion of immature erythroblasts was confirmed through flow cytometry.

CC(C)(Sc1ccc(CCN(CCCCC2CCCCC2)C(=O)NC2CCCCC2)cc1)C(=O)O [PPAR-α agonist, GW7647]
proliferation rate ([1]; day not given): 500 fold | proportion of immature erythroblasts (CD71) [2]: 53%

Cc1cccc(-c2nn3c(c2-c2ccnc4ccc(C(N)=O)cc24)CCC3)n1 [TGF-β inhibitor, LY2157299]
cell proliferation ([1]; by day 13 of culture): 1,000 fold | immature erythroblasts, % of all cells (E6/E7-transduced cells; day 28 of culture): 26.7% | immature erythroblasts, % of all cells (E6/E7-transduced cells; day 33 of culture): 15.2%
